Assay [1] concerns the target T1, Estrogen receptor (Homo sapiens, UniProt P03372).
T1 sequence (P03372 whole entry): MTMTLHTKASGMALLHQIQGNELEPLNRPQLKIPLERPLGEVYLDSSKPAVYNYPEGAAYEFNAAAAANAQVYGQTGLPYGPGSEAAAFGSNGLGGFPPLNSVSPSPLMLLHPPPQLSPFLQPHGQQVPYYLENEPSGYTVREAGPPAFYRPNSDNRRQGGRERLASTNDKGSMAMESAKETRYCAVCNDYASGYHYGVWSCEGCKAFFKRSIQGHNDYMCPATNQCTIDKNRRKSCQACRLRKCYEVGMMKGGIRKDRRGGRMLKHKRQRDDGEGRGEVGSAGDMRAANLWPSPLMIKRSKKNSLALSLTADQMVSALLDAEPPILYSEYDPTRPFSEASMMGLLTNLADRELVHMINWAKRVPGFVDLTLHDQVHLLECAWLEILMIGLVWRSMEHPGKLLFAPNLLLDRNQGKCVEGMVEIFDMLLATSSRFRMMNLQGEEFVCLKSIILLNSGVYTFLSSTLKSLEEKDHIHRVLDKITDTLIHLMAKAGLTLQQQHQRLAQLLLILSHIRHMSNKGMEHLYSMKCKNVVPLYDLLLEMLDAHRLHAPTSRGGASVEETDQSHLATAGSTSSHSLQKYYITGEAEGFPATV
The experiment in a line: potentiators of ERα–SRC-1 coactivator binding, dose response, biochemical, TR-FRET, ERα LBD (AID 737). For orientation: In TR-FRET formats the signal depends on donor and acceptor labels being close together.

Assay [2] addresses Photoreceptor-specific nuclear receptor (Homo sapiens, UniProt Q9Y5X4). The assay is classed as functional, cell-based.
The target in assay [3] is T1, Estrogen receptor. As to the kind of experiment: ERα–SRC-3 coactivator interaction inhibitors, confirmation, orthogonal assay, biochemical, ELISA, streptavidin-HRP readout (AID 1079). (An ELISA detects its analyte on a solid surface through an enzyme-linked reagent.)
In assay [4] the target is RNA-editing ligase 1, mitochondrial (Trypanosoma brucei brucei, UniProt P86926). As to the kind of experiment: TbREL1 ligase inhibitors, dose response, biochemical, fluorescence, Trypanosoma brucei (AID 1117295). The assay is classed as functional.
Sequence of RNA-editing ligase 1, mitochondrial (P86926 whole entry): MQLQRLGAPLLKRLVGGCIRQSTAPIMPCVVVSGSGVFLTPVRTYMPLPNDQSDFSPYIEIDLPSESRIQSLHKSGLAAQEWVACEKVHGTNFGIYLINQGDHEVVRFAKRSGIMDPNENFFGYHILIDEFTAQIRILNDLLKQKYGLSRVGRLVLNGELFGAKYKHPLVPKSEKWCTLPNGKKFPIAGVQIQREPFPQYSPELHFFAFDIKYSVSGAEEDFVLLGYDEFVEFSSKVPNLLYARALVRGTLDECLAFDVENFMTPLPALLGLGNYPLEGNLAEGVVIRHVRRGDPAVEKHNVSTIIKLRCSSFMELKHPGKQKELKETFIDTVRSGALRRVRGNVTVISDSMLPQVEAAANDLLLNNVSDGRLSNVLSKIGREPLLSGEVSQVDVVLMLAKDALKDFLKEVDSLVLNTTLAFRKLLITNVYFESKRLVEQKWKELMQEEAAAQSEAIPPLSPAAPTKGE
For assay [5], the target named is Melanin-concentrating hormone receptor 1 (Homo sapiens, UniProt Q99705). The experiment in a line: Fluorescence-based counterscreen for antagonists of the G-protein coupled receptor 7 (GPR7): cell-based high throughput dose response assay to identify antagonists of the melanin-concentrating hormone receptor 1 (MCHR1). The assay is classed as functional.
Assay [6] deals with T2, Alkaline phosphatase, tissue-nonspecific isozyme (Homo sapiens, UniProt P05186).
T2 sequence (P05186 whole entry): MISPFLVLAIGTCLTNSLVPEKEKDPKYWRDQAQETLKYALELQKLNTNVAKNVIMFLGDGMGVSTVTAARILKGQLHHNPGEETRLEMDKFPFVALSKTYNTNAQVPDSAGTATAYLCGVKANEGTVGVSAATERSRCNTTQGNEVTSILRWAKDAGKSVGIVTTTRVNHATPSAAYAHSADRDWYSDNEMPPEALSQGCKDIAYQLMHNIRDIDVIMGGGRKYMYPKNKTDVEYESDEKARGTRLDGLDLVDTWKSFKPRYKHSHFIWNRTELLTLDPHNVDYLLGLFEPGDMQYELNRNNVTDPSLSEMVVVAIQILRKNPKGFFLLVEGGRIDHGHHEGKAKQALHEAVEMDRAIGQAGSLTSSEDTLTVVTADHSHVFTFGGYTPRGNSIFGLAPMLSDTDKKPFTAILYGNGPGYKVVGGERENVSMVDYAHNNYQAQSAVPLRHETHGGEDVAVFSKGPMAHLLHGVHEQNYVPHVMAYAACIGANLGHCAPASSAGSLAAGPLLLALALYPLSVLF

The target of assay [7] is Cytochrome P450 2C9 (Homo sapiens, UniProt P11712). The settings on record: Potency.
Sequence of Cytochrome P450 2C9 (P11712 whole entry): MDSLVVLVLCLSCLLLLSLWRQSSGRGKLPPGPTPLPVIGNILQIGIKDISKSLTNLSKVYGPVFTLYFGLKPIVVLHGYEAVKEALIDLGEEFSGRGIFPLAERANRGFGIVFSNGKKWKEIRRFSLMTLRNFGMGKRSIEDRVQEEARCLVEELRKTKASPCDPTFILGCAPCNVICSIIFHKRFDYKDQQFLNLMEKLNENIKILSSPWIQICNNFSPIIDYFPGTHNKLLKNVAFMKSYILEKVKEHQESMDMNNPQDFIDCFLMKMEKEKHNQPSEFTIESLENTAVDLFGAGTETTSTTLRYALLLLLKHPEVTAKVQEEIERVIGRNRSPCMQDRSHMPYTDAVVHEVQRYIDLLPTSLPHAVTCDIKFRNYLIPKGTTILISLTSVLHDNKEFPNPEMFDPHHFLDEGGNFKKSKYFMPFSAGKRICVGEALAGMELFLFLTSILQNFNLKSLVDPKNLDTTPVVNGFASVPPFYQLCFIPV
For assay [8], the target named is Cytochrome P450 3A4 (Homo sapiens, UniProt P08684). The settings on record: Potency.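 Further: confirmatory qHTS run detecting inhibitors and substrates of CYP3A4.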
The target of assay [9] is Mothers against decapentaplegic homolog 3 (Homo sapiens, UniProt P84022). As to the kind of experiment: SMAD3 transcription factor inhibitors, dose response (AID 715). The assay is classed as functional.
The target in assay [10] is T3, Bcl-2-like protein 10 (Homo sapiens, UniProt Q9HD36).
T3 sequence (Q9HD36 whole entry): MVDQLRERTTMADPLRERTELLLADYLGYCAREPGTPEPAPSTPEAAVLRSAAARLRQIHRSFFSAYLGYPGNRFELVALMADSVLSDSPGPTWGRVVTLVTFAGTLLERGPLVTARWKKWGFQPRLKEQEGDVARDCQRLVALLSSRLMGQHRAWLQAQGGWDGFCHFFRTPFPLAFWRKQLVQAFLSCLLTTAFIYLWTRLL
The experiment in a line: displacers of TR3 peptide from Bcl-B, primary screen, selectivity assay for Bfl-1 inhibitor project, biochemical, fluorescence polarization, FITC-TR3 peptide (AID 748).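 Further: fluorescence polarization from a fluorescein-labelled TR3 peptide binding purified Bcl-B.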

For assay [11], the target named is T4, Bcl-2-related protein A1 (Mus musculus, UniProt Q07440).
T4 sequence (Q07440 whole entry): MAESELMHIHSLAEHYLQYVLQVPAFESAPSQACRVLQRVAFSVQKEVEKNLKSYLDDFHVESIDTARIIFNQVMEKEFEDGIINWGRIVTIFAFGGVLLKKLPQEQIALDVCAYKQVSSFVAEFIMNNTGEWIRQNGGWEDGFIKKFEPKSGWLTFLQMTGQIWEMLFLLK
The experiment in a line: Bfl-1 inhibitors, primary screen, biochemical, fluorescence polarization, FITC-Bid, mouse (AID 432).

In assay [12] the target is T5, Heat shock 70 kDa protein 1A (Homo sapiens, UniProt P0DMV8). As to the kind of experiment: Hsp70 inhibitors, probe displacement, primary screen, biochemical, fluorescence polarization (AID 583). (Polarisation of emitted light reports the rotation of a fluorescent probe.)
T5 sequence (P0DMV8 whole entry): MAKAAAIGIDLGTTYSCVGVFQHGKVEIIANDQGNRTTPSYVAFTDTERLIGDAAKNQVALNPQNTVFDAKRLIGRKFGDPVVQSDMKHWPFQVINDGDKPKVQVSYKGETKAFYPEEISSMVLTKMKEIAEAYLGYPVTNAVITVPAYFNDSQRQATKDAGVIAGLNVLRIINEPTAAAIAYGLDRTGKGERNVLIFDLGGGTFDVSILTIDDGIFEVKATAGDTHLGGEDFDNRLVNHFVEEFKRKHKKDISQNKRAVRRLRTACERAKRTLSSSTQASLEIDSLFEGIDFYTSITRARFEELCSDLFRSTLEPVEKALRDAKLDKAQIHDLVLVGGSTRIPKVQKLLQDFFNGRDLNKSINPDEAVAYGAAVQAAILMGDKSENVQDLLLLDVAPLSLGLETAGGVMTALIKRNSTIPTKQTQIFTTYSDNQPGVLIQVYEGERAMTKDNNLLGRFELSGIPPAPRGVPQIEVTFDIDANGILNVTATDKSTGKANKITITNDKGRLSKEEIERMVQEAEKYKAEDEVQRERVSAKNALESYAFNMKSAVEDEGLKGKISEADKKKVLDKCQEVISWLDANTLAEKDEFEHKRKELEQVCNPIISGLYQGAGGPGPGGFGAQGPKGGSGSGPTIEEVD
In assay [13] the target is Estrogen receptor beta (Homo sapiens, UniProt Q92731). The experiment in a line: ERβ–SRC-3 coactivator interaction inhibitors, confirmation, orthogonal assay, biochemical, ELISA, streptavidin-HRP readout (AID 1060).
The target in assay [14] is T4, Bcl-2-related protein A1. The experiment in a line: Bfl-1 inhibitors blocking BH3 peptide binding, confirmation, biochemical, TR-FRET, mouse Bfl-1 (AID 621).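 Further: TR-FRET binding of GST-Bfl-1 to FITC-labelled Bid peptide via terbium antibody.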
Assay [15] concerns the target T5, Heat shock 70 kDa protein 1A. As to the kind of experiment: Hsp70 inhibitors, biochemical, TR-FRET (AID 786).
Assay [16] can be described thus: Luminescence-based counterscreen assay for KLF5 inhibitors: dose response cell-based high throughput screening assay to identify cytotoxic compounds using the IEC-6 intestinal epithelial cell line. [Related pubchem assays: 1700 (Primary screen.), 1834 (Confirmation screen.), 1858 (Summary AID.), 1905 (Counterscreen.)]. It is filed as functional.
Assay [17] is described as follows: cytotoxicity in HEK-293T cells, dose response, cytotoxicity control for BCR NF-kB inhibitor project, luminescence, B-cell screen hits (AID 489021).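 Further: HEK-293T cells carrying an NF-kB luciferase reporter; cells exposed to compound for about 14 hours before viability readout.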 It is filed as functional, cell-based.
Assay [18] can be described thus: enhancers of respiration in Yfh1-depleted yeast, dose response, Friedreich's ataxia, plus single-dose screen (AID 1465).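 Further: yeast depleted of Yfh1p frataxin homolog grown on glycerol needing respiration; WST-1 tetrazolium dye reduction as measure of cellular dehydrogenase metabolic activity.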 The assay is classed as functional.
The target in assay [19] is Nonstructural protein 1 (Influenza A virus, UniProt Q194T2). The assay is classed as functional, Influenza A virus (A/California/07/2009(H1N1)).
Sequence of Nonstructural protein 1 (Q194T2 whole entry): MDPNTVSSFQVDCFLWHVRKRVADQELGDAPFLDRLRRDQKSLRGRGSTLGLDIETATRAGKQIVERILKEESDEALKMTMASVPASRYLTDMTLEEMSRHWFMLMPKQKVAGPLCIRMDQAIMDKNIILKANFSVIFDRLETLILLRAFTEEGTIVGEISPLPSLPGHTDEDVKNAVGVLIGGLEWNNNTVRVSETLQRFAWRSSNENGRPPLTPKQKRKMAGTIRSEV
Assay [20] concerns the target T6, Mucolipin-3 (Homo sapiens, UniProt Q8TDD5).
T6 sequence (Q8TDD5 whole entry): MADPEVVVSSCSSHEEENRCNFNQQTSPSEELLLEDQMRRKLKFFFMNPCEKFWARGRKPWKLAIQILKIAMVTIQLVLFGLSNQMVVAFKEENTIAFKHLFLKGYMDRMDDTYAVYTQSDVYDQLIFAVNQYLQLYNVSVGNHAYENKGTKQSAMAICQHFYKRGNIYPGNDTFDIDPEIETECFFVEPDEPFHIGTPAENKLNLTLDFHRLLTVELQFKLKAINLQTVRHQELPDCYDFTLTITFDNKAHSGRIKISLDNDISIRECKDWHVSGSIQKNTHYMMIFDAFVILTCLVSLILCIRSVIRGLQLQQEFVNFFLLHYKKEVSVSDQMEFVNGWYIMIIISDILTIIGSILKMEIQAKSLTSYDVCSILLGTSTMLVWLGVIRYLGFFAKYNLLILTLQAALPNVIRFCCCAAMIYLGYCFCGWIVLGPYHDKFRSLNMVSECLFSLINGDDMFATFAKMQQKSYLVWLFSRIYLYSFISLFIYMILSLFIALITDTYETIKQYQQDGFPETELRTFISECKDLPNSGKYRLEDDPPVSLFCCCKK
As to the kind of experiment: TRPML3 and TRPML2 channel agonists, cell-based, patch clamp, Fura-2 profiling panel, panel member TRPML3 Dose Response (AID 2116).

Assay [21] addresses T6, Mucolipin-3. The experiment in a line: Dose response cell-based high-throughput screening assay for agonists of the transient receptor potential channel ML3 (TRPML3). [Related pubchem assays: 1526, 1424, 1448 ]. It is filed as functional.
Assay [22] deals with T7, Ion channel NompC (Danio rerio, UniProt Q7T1G6). As to the kind of experiment: Fluorescence counterscreen assay for TRPML3 agonists: dose response cell-based high-throughput screening assay to identify agonists of the transient receptor potential channel N1 (TRPN1). [Related pubchem assays: 1526, 1424, 1448 ]. It is filed as functional.
T7 sequence (Q7T1G6 whole entry): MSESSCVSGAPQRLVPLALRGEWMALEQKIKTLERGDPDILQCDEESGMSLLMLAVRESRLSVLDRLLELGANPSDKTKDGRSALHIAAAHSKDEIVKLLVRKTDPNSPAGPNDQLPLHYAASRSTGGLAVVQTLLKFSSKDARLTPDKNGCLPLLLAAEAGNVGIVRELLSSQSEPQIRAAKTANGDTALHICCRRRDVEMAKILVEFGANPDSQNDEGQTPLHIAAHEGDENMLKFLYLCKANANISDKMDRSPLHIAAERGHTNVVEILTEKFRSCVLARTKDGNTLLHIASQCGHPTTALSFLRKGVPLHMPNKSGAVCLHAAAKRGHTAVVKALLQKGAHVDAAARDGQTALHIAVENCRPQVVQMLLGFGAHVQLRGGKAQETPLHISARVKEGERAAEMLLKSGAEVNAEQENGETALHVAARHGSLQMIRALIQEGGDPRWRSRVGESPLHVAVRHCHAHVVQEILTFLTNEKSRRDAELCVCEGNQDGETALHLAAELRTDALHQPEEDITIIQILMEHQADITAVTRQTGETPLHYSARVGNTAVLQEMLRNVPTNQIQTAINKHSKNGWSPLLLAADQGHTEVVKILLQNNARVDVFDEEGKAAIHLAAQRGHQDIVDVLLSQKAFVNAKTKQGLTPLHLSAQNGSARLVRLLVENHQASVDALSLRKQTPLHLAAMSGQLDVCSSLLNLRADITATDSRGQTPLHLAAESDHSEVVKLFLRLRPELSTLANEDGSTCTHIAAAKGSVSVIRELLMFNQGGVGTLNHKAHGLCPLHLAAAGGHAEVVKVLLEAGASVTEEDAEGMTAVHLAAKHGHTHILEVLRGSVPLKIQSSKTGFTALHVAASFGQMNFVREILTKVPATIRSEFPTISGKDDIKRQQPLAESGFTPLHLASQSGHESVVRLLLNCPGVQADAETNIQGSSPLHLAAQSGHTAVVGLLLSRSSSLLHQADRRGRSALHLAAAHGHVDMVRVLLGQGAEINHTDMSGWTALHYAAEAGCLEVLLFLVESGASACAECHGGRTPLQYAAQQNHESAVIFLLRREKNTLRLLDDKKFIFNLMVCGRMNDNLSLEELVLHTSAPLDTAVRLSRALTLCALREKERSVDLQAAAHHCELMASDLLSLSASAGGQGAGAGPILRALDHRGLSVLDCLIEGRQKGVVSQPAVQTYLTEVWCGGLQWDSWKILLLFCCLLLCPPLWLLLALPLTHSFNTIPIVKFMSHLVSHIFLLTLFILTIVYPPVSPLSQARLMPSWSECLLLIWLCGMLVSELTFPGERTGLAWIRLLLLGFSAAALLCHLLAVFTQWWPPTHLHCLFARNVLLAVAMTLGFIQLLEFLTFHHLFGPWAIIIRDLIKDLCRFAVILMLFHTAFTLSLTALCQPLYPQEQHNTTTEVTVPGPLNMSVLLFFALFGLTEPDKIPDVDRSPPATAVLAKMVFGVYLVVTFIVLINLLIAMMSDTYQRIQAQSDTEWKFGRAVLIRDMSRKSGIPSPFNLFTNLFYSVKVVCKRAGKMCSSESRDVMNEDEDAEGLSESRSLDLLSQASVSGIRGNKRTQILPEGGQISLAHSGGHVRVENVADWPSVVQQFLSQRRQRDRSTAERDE
In assay [23] the target is T7, Ion channel NompC. The experiment in a line: TRPML3 and TRPML2 channel agonists, cell-based, patch clamp, Fura-2 profiling panel, panel member TRPN1 Dose Response (AID 2116).
A short description of assay [24]: inhibitors of Bluetongue virus cytopathic effect, confirmation, arbovirus, BSR cells (AID 1250).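 Further: protection from viral cytopathic effect measured as cell viability by ATP luminescence.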 It is filed as functional.
The target in assay [25] is T3, Bcl-2-like protein 10. The experiment in a line: Biochemical TR3 FP assay of Bcl-B inhibitor potency, EC50 (AID 1243). The assay is classed as functional.
Assay [26] has as its system HT-1080. As to the kind of experiment: cytotoxicity in HT1080 fibrosarcoma cells, cell-based, fluorescence readout (AID 620). It is filed as functional. The settings on record: Homo sapiens.
Assay [27] deals with Luciferin 4-monooxygenase (Photinus pyralis, UniProt P08659). As to the kind of experiment: Counter Screen for Luciferase-based Assay Positives. [Related pubchem assays: 620, 618, 411 ].
The target in assay [28] is T8, Eukaryotic translation initiation factor 2-alpha kinase 3 (Homo sapiens, UniProt Q9NZJ5). The experiment in a line: Dose response cell-based high-throughput screening assay to measure PERK inhibition. [Related pubchem assays: 1416 ]. The assay is classed as functional.
T8 sequence (Q9NZJ5 whole entry): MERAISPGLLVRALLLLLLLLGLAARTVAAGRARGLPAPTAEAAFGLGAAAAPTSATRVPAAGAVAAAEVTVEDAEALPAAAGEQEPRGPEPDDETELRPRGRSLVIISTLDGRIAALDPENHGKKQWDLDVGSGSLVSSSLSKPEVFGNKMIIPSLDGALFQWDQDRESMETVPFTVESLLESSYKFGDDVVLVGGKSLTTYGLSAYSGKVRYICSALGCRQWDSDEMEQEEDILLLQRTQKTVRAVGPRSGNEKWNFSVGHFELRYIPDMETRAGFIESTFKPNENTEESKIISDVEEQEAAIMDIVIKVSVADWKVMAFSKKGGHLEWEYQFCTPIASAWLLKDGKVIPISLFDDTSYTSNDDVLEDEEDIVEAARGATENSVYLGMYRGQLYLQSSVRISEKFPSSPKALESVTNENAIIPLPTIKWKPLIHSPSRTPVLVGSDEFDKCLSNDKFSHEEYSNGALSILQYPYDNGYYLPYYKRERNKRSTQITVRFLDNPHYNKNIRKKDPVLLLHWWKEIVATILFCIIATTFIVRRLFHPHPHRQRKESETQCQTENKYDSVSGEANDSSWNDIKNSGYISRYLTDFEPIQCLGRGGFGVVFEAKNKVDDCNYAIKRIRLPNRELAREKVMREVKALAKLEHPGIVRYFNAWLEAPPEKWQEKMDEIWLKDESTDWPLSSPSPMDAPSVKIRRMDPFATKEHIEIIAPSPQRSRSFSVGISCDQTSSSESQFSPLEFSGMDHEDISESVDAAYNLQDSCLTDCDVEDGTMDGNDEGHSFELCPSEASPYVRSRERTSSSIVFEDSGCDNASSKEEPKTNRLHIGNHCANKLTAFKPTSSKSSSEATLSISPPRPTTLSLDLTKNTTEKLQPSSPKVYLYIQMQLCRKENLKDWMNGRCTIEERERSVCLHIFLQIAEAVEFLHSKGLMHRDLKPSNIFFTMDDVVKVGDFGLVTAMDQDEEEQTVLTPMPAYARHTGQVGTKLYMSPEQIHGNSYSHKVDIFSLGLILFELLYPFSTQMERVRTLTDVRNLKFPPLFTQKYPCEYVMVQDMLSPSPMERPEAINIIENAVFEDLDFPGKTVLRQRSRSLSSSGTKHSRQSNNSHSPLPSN
For assay [29], the target named is T8, Eukaryotic translation initiation factor 2-alpha kinase 3. The experiment in a line: Counterscreen assay for PERK inhibitors: Dose response cell-based high throughput screening assay to measure inhibition of PERK at 6 hours. [Related pubchem assays: 1522, 1416 ]. The assay is classed as functional.
Assay [30] has as its target Acyl-homoserine lactone acylase PvdQ (Pseudomonas aeruginosa (strain LESB58), UniProt Q9I194). The experiment in a line: P. aeruginosa PvdQ acylase inhibitors, dose response, biochemical, fluorescence, plate reader and imaging, cherry-picks (AID 493231).
Assay [31] deals with Induced myeloid leukemia cell differentiation protein Mcl-1 (Homo sapiens, UniProt Q07820). It is filed as functional.
Sequence of Induced myeloid leukemia cell differentiation protein Mcl-1 (Q07820 whole entry): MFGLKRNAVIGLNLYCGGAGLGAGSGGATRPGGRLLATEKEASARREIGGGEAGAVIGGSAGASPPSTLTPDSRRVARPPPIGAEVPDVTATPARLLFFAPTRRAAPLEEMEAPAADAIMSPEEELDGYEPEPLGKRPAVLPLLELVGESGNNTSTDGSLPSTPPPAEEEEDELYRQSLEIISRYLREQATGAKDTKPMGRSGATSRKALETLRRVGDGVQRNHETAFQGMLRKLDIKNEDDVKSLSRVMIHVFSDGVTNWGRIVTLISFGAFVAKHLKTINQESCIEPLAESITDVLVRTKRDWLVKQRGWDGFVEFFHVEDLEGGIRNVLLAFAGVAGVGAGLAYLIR

The structures appear in SMILES notation. Active and inactive are the calls of the source.

By EC50 is commonly meant the concentration needed to bring the measured effect to its halfway point. The IC50 is the concentration that inhibits the measured activity by half. Consider `Cc1ccc(NC(=O)CSc2nnnn2-c2ccc3c(c2)OCO3)cc1C`, for which, in [1], the EC50 was 8.47 µM (active). Further, in assay [2], the IC50 was 0.581 µM (active).

With `O=C(CCCn1c(=S)[nH]c2ccccc2c1=O)N1CCN(c2ccccc2O)CC1`, in assay [3], the IC50 was 0.07 µM (not active).

For the compound `COCCNC1=N[C@@H](c2cccc(C(F)(F)F)c2)C(C(=O)OC)=C(C)N1Cc1ccccc1`, the IC50 in assay [4] was > 96.6 µM (inactive); in [5], 14.7 µM (not active).

Regarding `Cc1ccc(N(C(=O)c2ccn[nH]2)C(C(=O)NC2CCCC2)c2cccs2)cc1` (stereo unspecified), in [6], the EC50 was > 100 µM (not active).

For orientation: AC50 means the midpoint of the concentration-response curve, whichever way the signal moves. On to `OC1c2ccccc2-c2nc3ccccc3cc21` (stereo unspecified), for which the AC50 in assay [7] and in assay [8] was 25.1 µM (inconclusive) each time.

As to `COc1cccc(C(=O)NC2CC3CCCC(C2)N3CC(=O)Nc2ccccc2)c1` (stereo unspecified), the IC50 in assay [9] is 9.46 µM (active); in [10], 73.6 µM (inactive); in [11] it was > 100 µM (not active); in assay [12], 45.4 µM (active); in [13], 44.6 µM (not active); in assay [14], > 100 µM (not active). The IC50 in assay [15] is 11.4 µM (active).

In the case of `Cc1ccc(/C=C2/SC(=S)N(CCCC(=O)Nc3ccc(O)cc3)C2=O)cc1`, the IC50 in assay [16] is 14.1 µM (not active); in [17], > 80 µM (inactive).

As to `CC(C)(C)C1=CC(=O)C(N2CCOCC2)=CC1=O`, the EC50 in [18] is > 100 µM (active). Besides, the IC50 in assay [19] was > 100 µM (active).

Take `Cc1ccc(Cl)cc1N1CCN(S(=O)(=O)N2CCCCC2)CC1`: the EC50 in assay [20] was 3.46 µM (active); in assay [21], 1.84 µM (active); in assay [22] it was > 29.9 µM (not active); in [23], > 29.9 µM (inactive).

Regarding `N#Cc1c(O)nc(SCC(=O)Nc2nnc(C(F)(F)F)s2)nc1-c1ccccc1`, the IC50 in assay [24] was 28.1 µM (active).

As to `OC1=c2ccccc2=C(O)C12N=Nc1nnc(S)n1N2`, in assay [25], the EC50 is 23.8 µM (active).

Regarding `CCOC(=O)CNC(=O)CSc1ncnc2c1cnn2-c1ccc(C)cc1`, the EC50 was > 50 µM (not active) in assay [26] and < 0.2 µM (active) in assay [27].

For the compound `CC(C)C(=O)Nc1ccc2c(c1)nc(CCN1CCN(C)CC1)n2C`, the EC50 in assay [28] and in assay [29] was > 55.7 µM (not active) each time.

Take `CC(C)CCNC(=O)c1cccc(Cl)c1`: the AC50 in assay [30] was 6.33 µM (active).

For the compound `CN(C)c1ccc(/C=N/N(Cc2ccccc2)c2ccccc2)cc1`, the IC50 in assay [31] is reported as 1.52 µM (not active).

(Values after ChEMBL document CHEMBL1201862, “PubChem BioAssay data set” (2004).)
